This is an account of results in PMC10472861, “Potent inhibition of human tyrosinase inhibitor by verproside from the whole plant of Pseudolysimachion rotundum var. subintegrum” (Journal of Enzyme Inhibition and Medicinal Chemistry, 2023).

The IC50 is the concentration needed to halve the response being measured. As usually defined, the inhibition is the share of the control response that was lost under treatment.

The target of data set [1] is T1, mushroom tyrosinase (Agaricus bisporus, UniProt C7FF04).
T1 construct: purchased Sigma Chemical Co. T3824-50KU
T1 sequence (C7FF04 1-392): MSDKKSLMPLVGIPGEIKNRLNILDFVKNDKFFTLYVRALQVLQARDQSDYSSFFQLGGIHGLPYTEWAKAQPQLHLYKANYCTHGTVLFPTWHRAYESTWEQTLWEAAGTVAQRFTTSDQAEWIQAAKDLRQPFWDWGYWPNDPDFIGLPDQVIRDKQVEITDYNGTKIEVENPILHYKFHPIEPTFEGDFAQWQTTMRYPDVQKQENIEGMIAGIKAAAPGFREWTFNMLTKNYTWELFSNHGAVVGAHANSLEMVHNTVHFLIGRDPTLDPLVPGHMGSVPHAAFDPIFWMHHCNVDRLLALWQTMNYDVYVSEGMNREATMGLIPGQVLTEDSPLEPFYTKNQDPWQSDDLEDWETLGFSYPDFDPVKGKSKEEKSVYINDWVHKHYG
Kind of data set: Affinity-based time-dependent assay (slow-binding kinetics). The data set is classed as biochemical. Conditions: for Time dependence of inhibition: mushroom tyrosinase, L-tyrosine. The procedure:
Time-dependent assays were carried out using 144 U of mushroom tyrosinase and L-tyrosine as the substrate in 0.25 M phosphate buffer (pH 6.8) at 30 °C. […] The data were analysed using a nonlinear regression program [SigmaPlot (SPCC Inc., Chicago, IL)] to give the individual parameters for each curve; vi (initial velocity), vs (steady–state velocity), kobs (apparent first–order rate constant for the transition from vi to vs), A (intensity), A0 (included to correct any possible deviation in the baseline), and Ki^app (apparent Ki) according to Equations. 2–4[26–28]: (2) A=vst + (vi–vs)[1 – exp (–kobst)]/kobs (3) v/v0= exp(−kobst) (4) kobs=k6+ [(k5 × [I])/(Ki^app + [I])]

The target of data set [2] is T2, recombinant human tyrosinase (hTyr) (Homo sapiens, UniProt P14679).
T2 construct: His-tag; purchased Enzo Life Sciences BML-SE535-0100
T2 sequence (P14679 19-529): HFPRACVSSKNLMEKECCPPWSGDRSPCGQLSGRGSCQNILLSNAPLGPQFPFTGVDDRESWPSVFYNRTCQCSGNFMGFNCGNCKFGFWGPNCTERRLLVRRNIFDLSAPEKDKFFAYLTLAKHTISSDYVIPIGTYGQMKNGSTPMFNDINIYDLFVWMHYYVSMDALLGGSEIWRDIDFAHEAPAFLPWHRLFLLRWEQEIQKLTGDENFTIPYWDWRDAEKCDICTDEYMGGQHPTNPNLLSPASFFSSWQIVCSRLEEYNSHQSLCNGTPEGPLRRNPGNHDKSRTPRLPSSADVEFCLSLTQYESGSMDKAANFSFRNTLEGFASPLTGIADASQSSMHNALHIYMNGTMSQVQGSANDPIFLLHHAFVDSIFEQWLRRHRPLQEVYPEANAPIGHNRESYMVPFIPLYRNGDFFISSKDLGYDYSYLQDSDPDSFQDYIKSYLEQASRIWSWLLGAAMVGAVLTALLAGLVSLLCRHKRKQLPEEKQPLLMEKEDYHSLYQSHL
As to the kind of experiment: Human tyrosinase inhibition, L-tyrosine substrate. The data set is classed as biochemical.

Data set [3] addresses T2, recombinant human tyrosinase (hTyr). As to the kind of experiment: Human tyrosinase inhibition, L-DOPA substrate. The data set is classed as biochemical. Here is the method:
The enzymatic activities of tyrosinase were tested in vitro with the substrates and inhibitors known to interact with mushroom and mammalian tyrosinases (http://www.brenda-enzymes.info). The Michaelis-Menten constant (Km) of proteins was calculated from Lineweaver-Burk plots for 1/V0 versus 1/[substrate]. Mushroom tyrosinase (mTyr, EC 1.14.18.1, Sigma Chemical Co., T3824-50KU) was used as described previously[9] with some modifications with either 3,4-Dihydroxy-L-phenylalanine (L-DOPA, D9628-5G) or L-tyrosine (T3754-50G) as the substrate. In the spectrophotometric experiments, the initial velocity (vi) of enzymatic activity was monitored by observing dopachrome formation at 475 nm with a UV–vis spectrophotometer (SpectraMax M4, Molecular Devices, Sunnyvale, CA, USA) at 37 °C. The reaction was performed in a 96-well plate. All samples were first dissolved in dimethyl sulfoxide (DMSO) at a concentration of 2 mM. […] The activity of recombinant human tyrosinas (hTyr, His-tag, Enzo® Life Sciences, NY, USA, Cat. No. BML-SE535-0100) was determined using L-DOPA as a substrate, and the procedure involved a previously described absorption assay. […] The reaction was incubated for 10 min at 37 °C and was monitored at 475 nm for dopachrome formation on a SpectraMax M4 multimode detection platform (Molecular Devices). […]

The target in data set [4] is T3, Mushroom tyrosinase (mTyr) (Agaricus bisporus, UniProt C7FF04).
T3 construct: purchased Sigma Chemical Co. T3824-50KU
As to the kind of experiment: Mushroom tyrosinase inhibition, L-tyrosine substrate (monophenolase). The data set is classed as biochemical. As to conditions: for Type of inhibition (monophenolase): L-tyrosine, Lineweaver-Burk and Dixon plots.
Target sequence in this assay (C7FF04 1-392): as the sequence (C7FF04 1-392) above

For data set [5], the system named is mushroom tyrosinase. Kind of data set: Affinity-based ultrafiltration UPLC-QTOF-MS binding experiment. As to conditions: UPLC-QTOF-MS peak area in 1000 ppm extract, not exposed to enzyme. The procedure: (§1) Affinity-based ultrafiltration was performed as previously described by Zuo et al. and Wang et al.[15]^,[19]^,[23]. First, […] of 0.25 M phosphate buffer (pH 6.8) with 10% glycerol was added to 13 μL of mushroom tyrosinase (144 U in the same phosphate buffer solution) and 100 μL of 1000 mg/mL extract (the test solution was consistently 3.3%). The final concentration of the extract was adjusted to 1000 ppm. The mixture was incubated for 15 or 50 min at 37 °C on a plate shaker. Then, the sample was centrifuged at 13,000 rpm for 20 min, and the supernatant was collected for analysis. The supernatant solution was filtered through a membrane (PTFE 0.2 μm, hydrophobic, Advantec, Japan), and 2 μL of each solution was injected for UPLC-PDA-QTOF-MS analysis.
(§2) The compounds from the P. rotundum var. subintegrum extract were analysed by UPLC-PDA-ESI-QTOF-MS. […] MS was performed in negative ion mode ([M − H]^−). N2 was used as the desolvation gas, the desolvation temperature was set to 350 °C at a flow rate of 400 L/h with a source temperature of 100 °C. The capillary and cone voltages were set to 2300 and 50 V, respectively. The data for each sample were collected with a scan time of 0.25 s and a 0.01 s interscan delay. Exact MS, MS/MS, and elemental analysis were confirmed using MassLynx software incorporated into the Waters instrument.

For data set [6], the target named is T1, mushroom tyrosinase. Described as above. Here is the method: as §1, §2
For another data set, the system named is B16F10 cells. As to the kind of experiment: CCK-8 cell viability assay, B16F10. Conditions: 48 h. In kind it is cell-based, murine. The procedure:
(§3) The B16F10 melanoma and Melan-A normal murine melanocyte cells were purchased from the American Type Culture Collection (ATCC), respectively. The B16F10 cells were cultured in complete Dulbecco's Modified Eagle's Medium (DMEM high glucose, Gibco) supplemented with 10% (v/v) Fetal Bovine Serum (FBS, Gibco, USA), 100 U/mL penicillin, 50 μg/ml streptomycin. The Melan-A cells were cultured in RPMI -1640 medium supplemented with 10% FBS, 2 mM L -glutamine, 200 nM 12 -o-tetradecanoyl phorbol -13-acetate (Sigma, USA), 100 U/mL penicillin, 50 μ g/ml streptomycin, and grown in a humidified atmosphere containing 5% CO 2 in ai r at 37°C.
(§4) The cells were seeded in 96 -well plates at a density of 5 × 10^3 cells/well in cultured medium. The cells were treated with the corresponding concentrations of verproside for 48 h. Cell viability was measured in triplicate using a Cell Counting Kit -8 (CCK -8; Dojindo Molecular Technologies, Rockville, MD, USA) . Absorbance was determined using an Epoch microplate reader (BioTek Instruments, Winooski, VT, USA, #CK04) and calculated as a relative percentage (%) of the control […]
(§5) Figure S4 . The cell viability by verproside in B16F10 and Melna -A cells. (A) CCK -8 assays in B16F10 cells. (B) CCK -8 assays in Melna -A cells.
(§6) (1 picture or pasted object on this page, not shown here)
(Tetrazolium dyes change colour on reduction, which living cells bring about.)

Data set [7] has as its target T3, Mushroom tyrosinase (mTyr). Kind of data set: Mushroom tyrosinase inhibition, L-DOPA substrate (diphenolase). The data set is classed as biochemical.
Target sequence in this assay (C7FF04 1-392 limits assumed): as the sequence (C7FF04 1-392) above
The next data set has as its system Melan-A cells. As to the kind of experiment: CCK-8 cell viability assay, Melan-A. The data set is classed as cell-based, murine. Conditions: 48 h. The procedure:
as §3, §4, §5, §6

“Also recorded” adds a separate entry of the source.

`O=C(OC1C2C=COC(OC3OC(CO)C(O)C(O)C3O)C2C2(CO)OC12)c1ccc(O)c(O)c1` (centres unmarked) [Verproside (1), Verproside]: at mushroom tyrosinase [1] (fit of kobs to Equation (4)), the k5 worked out at 0.04496 s⁻¹. The same compound gave a k6 on mushroom tyrosinase [1] (fit of kobs to Equation (4)) of 0.00001103 s⁻¹. The Ki at mushroom tyrosinase [1] (fit of kobs to Equation (4), read-out: Ki^app (apparent Ki)) was determined as 2400 µM; in [4] (mTyr, L-tyrosine (monophenolase), read-out: Ki (inhibition constant)) it was 5.1 µM. Also, the “Time dependence of inhibition” value is “time-dependent; also recorded: slow-binding” on mushroom tyrosinase [1] (listed as verproside) and “time-dependent inhibition” at mushroom tyrosinase [1] (listed as verproside (1)). The concentration for half-maximal inhibition (IC50) was found to be 197 µM in data set [2] (hTyr, L-tyrosine substrate); 843 µM in data set [3]; 31.2 ± 2.1 µM in data set [4] (mTyr, L-tyrosine substrate (monophenolase), read-out: Mushroom Tyrosinase L-Tyrosine IC50); 177 ± 33.1 µM in [7] (mTyr, L-DOPA substrate, read-out: Mushroom Tyrosinase L-DOPA IC50). In data set [2] (ratio of hTyr IC50 values, kojic acid / verproside), the “Efficacy relative to positive control kojic acid in hTyr” value turned out to be 5.6 fold. Further, the “Type of inhibition (monophenolase)” value is “competitive inhibition” in [4] (mTyr) and “competitive” in [4] (mTyr, listed as verproside). Besides, the inhibition at 100 µM in [4] (read-out: Mushroom Tyrosinase L-Tyrosine 100 µM inhibition (%)) amounted to 98.4%. Moreover, in the data set with mushroom tyrosinase [5], the “Control (area)” value was 112306 area. For the same compound, at mushroom tyrosinase [6] (UPLC-QTOF-MS peak area in 1000 ppm extract after incubation with mTyr), the “after tyrosinase (area)” value came out at 61907 area. For the same compound, on mushroom tyrosinase [6] (extract treated with mTyr, 15 min preincubation), the “Relative metabolite intensity upon treatment with mTyr” value is on record as “significantly reduced”. Moreover, the Cell viability result in the data set with B16F10 cells and in the data set on Melan-A cells was “did not significantly affect cell viability” in each case. The “Type of inhibition (diphenolase)” value in [7] (mTyr diphenolase activity) was “competitive inhibition”.
